Results as given in patent US20180230097A1, “PROCESS FOR PREPARATION OF APREMILAST AND NOVEL POLYMORPHS THEREOF” (LUPIN LIMITED, priority 2015, published 2018).

How the values were obtained:
[1] = Polymorph stability under temperature/humidity storage (PXRD, FIG. 15 and 16); assay type: physicochemical; details: 25° C. to 40° C. temperature, 5% to 75% humidity (RH); FIG. 15 25° C./60% RH/2M, FIG. 16 40° C./75% RH/2M
Method: The term “stable” with respect polymorph or to a drug dosage form, refers to the chemical and physical integrity of the polymorph or dosage unit and, when appropriate, the ability of the dosage unit to maintain protection against microbiological contamination.
The Form M of apremilast is stable at different set of conditions such as 25° C. to 40° C. temperature, 5% to 75% humidity (RH) for durations as depicted in FIG. 15 and FIG. 16.
Using a PANalytical X'Pert powder diffraction meter, the x-ray powder diffraction pattern was measured at room temperature using a Cu Ka filled tube (45 kV 40 mA) as the x-ray source. Data collection was done in 2theta continuous scan mode in the range of 3.5° to 40°.

[2] = Solubility of Form M in various media; assay type: physicochemical; details: water, hydrochloric acid, acetate Buffer, and phosphate Buffer at different pH

SMILES: CCOc1cc(C(CS(C)(=O)=O)N2C(=O)c3cccc(NC(C)=O)c3C2=O)ccc1OC (centres unmarked) [Form M]
- stability of polymorph [1]: stable
- solubility in various medium [2]: good solubility
